We go through 23 compounds from ChEMBL document CHEMBL3045765, “Quantitative structure-fungitoxicity relationships of some monohydric alcohols” (J Agric Food Chem, 2003).

Some results are limits rather than exact numbers.

The subject of assay [1] is Colletotrichum gloeosporioides. Kind of assay: Fungitoxicity against Colletotrichum gloeosporioides assessed as mycelial growth inhibition by poisoned food technique. The note with it: for minimal effective concentration: read-out: MEC. In kind it is functional, organism-based.
Assay [2] relates to Colletotrichum gloeosporioides. Kind of assay: Fungitoxicity against Colletotrichum gloeosporioides assessed as mycelial growth inhibition at 1200 mg/L by poisoned food technique. The conditions noted are these: read-out: GI. In kind it is functional.

Take `C=C[C@H](O)CCCCC`: the figures for the EC50 in assay [1] (read-out: EC50) and in assay [1] (read-out: pEC50 (converted)) were 1290 µg/mL and 10 mM, respectively.
Take `CCCCCCCO` [1-HEPTANOL]: the EC50 in assay [1] (read-out: EC50) was 546 µg/mL; in assay [1] (read-out: pEC50 (converted)), 4.68 mM. The minimal effective concentration in assay [1] was 182 µg/mL.
`CCCCCCO` [1-HEXANOL]: the results for the EC50 in assay [1] (read-out: EC50) and in assay [1] (read-out: pEC50 (converted)) were 1270 µg/mL and 12 mM, respectively. In addition, in assay [1], the minimal effective concentration is 772 µg/mL.
The matching figures for `CCCCCO` [1-PENTANOL]: 2130 µg/mL, 24 mM and 712 µg/mL.
Regarding `CC(C)CCO` [3-METHYLBUTANOL], the EC50 in assay [1] (read-out: EC50) was 3710 µg/mL; in assay [1] (read-out: pEC50 (converted)), 41.7 mM.
In the same order, the values of `CC(C)[C@@H]1CC[C@@H](C)C[C@@H]1O` [(+) NEOMENTHOL] are 488 µg/mL and 3.09 mM.
Take `CCO` [ALCOHOL]: the EC50 in assay [1] (read-out: EC50) amounted to 17700 µg/mL. The minimal effective concentration in assay [1] was found to be 5490 µg/mL.
For `OCc1ccccc1` [BENZYL ALCOHOL], the values for the EC50 in assay [1] (read-out: EC50) and in assay [1] (read-out: pEC50 (converted)) were 1180 µg/mL and 11 mM, respectively.
In the case of `CCCCO` [BUTYL ALCOHOL], the values for the EC50 in assay [1] (read-out: EC50) and in assay [1] (read-out: pEC50 (converted)) were 3690 µg/mL and 50.1 mM, respectively. For the same compound, in assay [1], the minimal effective concentration came to 910 µg/mL.
In the same order, the values of `CCCCCCCCCCCCCCCCCCO` [CETOSTEARYL ALCOHOL] are greater than 225 µg/mL, greater than 1.26 mM and greater than 225 µg/mL.
For the compound `CCCCCCCCCCCCCCCCO` [CETYL ALCOHOL], the EC50 was greater than 1200 µg/mL in assay [1] (read-out: EC50) and greater than 5.25 mM in assay [1] (read-out: pEC50 (converted)). The inhibition of growth at 1200 µg/mL in assay [2] stood at 5%.
Turning to `CC(C)=CCCC(C)CCO` (stereo unspecified) [CITRONELLOL], the values for the EC50 in assay [1] (read-out: EC50) and in assay [1] (read-out: pEC50 (converted)) were 84 µg/mL and 0.537 mM, respectively.
For `CCCCCCCCCCO` [DECANOL], the EC50 in assay [1] (read-out: EC50) was 112 µg/mL; in assay [1] (read-out: pEC50 (converted)), 0.708 mM. In addition, the minimal effective concentration in assay [1] was found to be 52 µg/mL.
For `CC(C)=CCC/C(C)=C/CO` [GERANIOL], the EC50 in assay [1] (read-out: EC50) was 100 µg/mL; in assay [1] (read-out: pEC50 (converted)), 0.646 mM.
In the case of `CC(C)CO` [ISOBUTANOL], the EC50 in assay [1] (read-out: EC50) stood at 8200 µg/mL.
Consider `CC(C)O` [ISOPROPYL ALCOHOL], for which, in assay [1] (read-out: EC50), the EC50 came out at 18200 µg/mL.
As to `C=CC(C)(O)CCC=C(C)C` (stereo unspecified) [LINALOOL], the values for the EC50 in assay [1] (read-out: EC50) and in assay [1] (read-out: pEC50 (converted)) were 1090 µg/mL and 7.08 mM, respectively.
In the same order, the values of `CC1CCC(C(C)C)C(O)C1` (stereo unspecified) [MENTHOL] are 452 µg/mL and 2.88 mM.
Consider `CO` [METHYL ALCOHOL], for which the EC50 in assay [1] (read-out: EC50) amounted to 24700 µg/mL. Also, in assay [1], the minimal effective concentration worked out at 8000 µg/mL.
`CCCCCCCCO` [OCTANOL]: the figures for the EC50 in assay [1] (read-out: EC50) and in assay [1] (read-out: pEC50 (converted)) were 298 µg/mL and 2.29 mM, respectively. Also, the minimal effective concentration in assay [1] was found to be 87 µg/mL.
As for `OCCc1ccccc1` [PHENYLETHYL ALCOHOL], the EC50 was 1000 µg/mL in assay [1] (read-out: EC50) and 8.13 mM in assay [1] (read-out: pEC50 (converted)).
For `CCCO` [PROPANOL], the EC50 in assay [1] (read-out: EC50) came to 8980 µg/mL. The minimal effective concentration in assay [1] came out at 4430 µg/mL.
As to `CC(C)(C)O` [TERT-BUTANOL], the EC50 in assay [1] (read-out: EC50) was found to be 17100 µg/mL.
